Data: patent US20240327393A1 (SIRONAX LTD., priority 2021, published 2024)

Tested on: HT-1080 (ATCC, CCL-121) cells
Assay: HT-1080 cell viability assay with ferroptosis inducer RSL3 (Cell Titer-Glo)
Format: cell-based
Conditions: Homo sapiens; HT-1080 cells treated with RSL3; 3-fold, 10-point dilution, 1.1 μM highest concentration; Table 2; read-out: EC50 (nM), ferroptosis inhibitory activity
In short: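 HT-1080 cells (6000 per well) were cultured overnight at 37 °C, then co-treated with RSL3 and compound in a 3-fold, 10-point series topping at 1.1 μM. Viability was read by CellTiter-Glo luminescence and normalized to untreated controls. EC50 came from a sigmoidal non-linear regression fit.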

EC50 [nM] | Compound
0.1 to 100 | CN1Cc2cc(Nc3ccc(N4CCC(C)(C)CC4)cc3)ccc2C1=O [Compound 211, 5-((4-(4,4-dimethylpiperidin-1 yl)phenyl)amino)-2-methylisoindolin-1-one]
0.1 to 100 | O=C1c2ccc(Nc3ccc(N4CCC(C(F)(F)F)CC4)cc3)cc2CN1CC=C(F)F [Compound 215, 2-(3,3-difluoroallyl)-5-((4-(4-(trifluoromethyl)piperidin-1-yl)phenyl)amino)isoindolin-1-one]
0.1 to 100 | Cn1c(=O)c2ccc(Nc3ccc(N4CCC(C(F)(F)F)CC4)c(F)c3)cc2n1C(=O)OC(C)(C)C [Compound 216, tert-butyl 6-((3-fluoro-4-(4-(trifluoromethyl)piperidin-1-yl)phenyl)amino)-2-methyl-3-oxo-2,3-dihydro-1H-indazole-1-carboxylate]
0.1 to 100 | CN1Cc2cc(Nc3ccc(N4CCCCC4)cc3)ccc2C1=O [Compound 217, 2-methyl-5-((4-(piperidin-1-yl)phenyl)amino)isoindolin-1-one]
0.1 to 100 | CCn1c2cc(Nc3ccc(N4CCC(C(F)(F)F)CC4)cc3)ccc2c(=O)n1C [Compound 218, 1-ethyl-2-methyl-6-((4-(4-(trifluoromethyl)piperidin-1-yl)phenyl)amino)-1,2-dihydro-3H-indazol-3-one]
0.1 to 100 | Cn1[nH]c2cc(Nc3ccc(N4CCC(C(F)(F)F)CC4)c(F)c3)ccc2c1=O [Compound 219, 6-((3-fluoro-4-(4-(trifluoromethyl)piperidin-1-yl)phenyl)amino)-2-methyl-1,2-dihydro-3H-indazol-3-one]
0.1 to 100 | Cn1c(=O)n(C)c2cc(Nc3ccc(N4CCC(C(F)(F)F)CC4)cc3)ccc21 [Compound 220, 1,3-dimethyl-5-((4-(4-(trifluoromethyl)piperidin-1-yl)phenyl)amino)-1,3-dihydro-2H-benzo[d]imidazol-2-one]
0.1 to 100 | CC1CCC(N2Cc3cc(Nc4ccc(N5CCC(C(F)(F)F)CC5)cc4)ccc3C2=O)CC1 (stereo not drawn) [Compound 221, 2-(4-methylcyclohexyl)-5-((4-(4-(trifluoromethyl)piperidin-1-yl)phenyl)amino)isoindolin-1-one]
0.1 to 100 | CN1Cc2cc(Nc3ccc(N4CCC(C(F)(F)F)C4)cc3)ccc2C1=O (stereo not drawn) [Compound 222, 2-methyl-5-((4-(3-(trifluoromethyl)pyrrolidin-1-yl)phenyl)amino) isoindolin-1-one]
0.1 to 100 | CN1Cc2cc(Nc3ccc(N4CC(C)(C)C4)cc3)ccc2C1=O [Compound 223, 5-((4-(3,3-dimethylazetidin-1-yl)phenyl)amino)-2-methylisoindolin-1-one]
0.1 to 100 | Cn1c(=O)c2ccc(Nc3ccc(N4CCC(C(F)(F)F)CC4)cc3)cc2n1C [Compound 224, 1,2-dimethyl-6-((4-(4-(trifluoromethyl)piperidin-1-yl)phenyl)amino)-1,2-dihydro-3H-indazol-3-one]
0.1 to 100 | CN1Cc2cc(Nc3ccc(N4CCCCC4)c(Cl)c3)ccc2C1=O [Compound 225, 5-((3-chloro-4-(piperidin-1-yl)phenyl)amino)-2-methylisoindolin-1-one]
0.1 to 100 | Cc1cc(C)cc(Nc2ccc3c(c2)CN(C)C3=O)c1 [Compound 226, 5-((3,5-dimethylphenyl)amino)-2-methylisoindolin-1-one]
0.1 to 100 | CN1Cc2cc(Nc3ccc(N(C)C)cc3)ccc2C1=O [Compound 227, 5-((4-(dimethylamino)phenyl)amino)-2-methylisoindolin-1-one]
0.1 to 100 | CN1Cc2cc(Nc3ccc(-c4ccccc4)cc3)ccc2C1=O [Compound 228, 5-([1,1′-biphenyl]-4-ylamino)-2-methylisoindolin-1-one]
0.1 to 100 | CN1Cc2cc(Nc3ccc4c(c3)OCCO4)ccc2C1=O [Compound 229, 5-((2,3-dihydrobenzo[b][1,4]dioxin-6-yl)amino)-2-methylisoindolin-1-one]
0.1 to 100 | Cc1ccc(Cl)c(Nc2ccc3c(c2)CN(C)C3=O)c1 [Compound 230, 5-((2-chloro-5-methylphenyl)amino)-2-methylisoindolin-1-one]
0.1 to 100 | COc1ccc(C)cc1Nc1ccc2c(c1)CN(C)C2=O [Compound 231, 5-((2-methoxy-5-methylphenyl)amino)-2-methylisoindolin-1-one]
0.1 to 100 | CN1Cc2cc(Nc3ccc(Oc4ccc(Cl)cc4)cc3)ccc2C1=O [Compound 232, 5-((4-(4-chlorophenoxy)phenyl)amino)-2-methylisoindolin-1-one]
100 to 1000 | CN1Cc2cc(Nc3ccc4nccn4c3)ccc2C1=O [Compound 233, 5-(imidazo[1,2-a]pyridin-6-ylamino)-2-methylisoindolin-1-one]
0.1 to 100 | CN1Cc2cc(Nc3cccc(N(C)C)c3)ccc2C1=O [Compound 234, 5-((3-(dimethylamino)phenyl)amino)-2-methylisoindolin-1-one]

EC50 [nM] | Compound
0.1 to 100 | CN1Cc2cc(Nc3ccc(N(C)C)nc3)ccc2C1=O [Compound 235, 5-((6-(dimethylamino)pyridin-3-yl)amino)-2-methylisoindolin-1-one]
0.1 to 100 | Cc1cc(C)c(Nc2ccc3c(c2)CN(C)C3=O)cn1 [Compound 236, 5-((4,6-dimethylpyridin-3-yl)amino)-2-methylisoindolin-1-one]
0.1 to 100 | COCCOc1ccc(Nc2ccc3c(c2)CN(C)C3=O)cc1 [Compound 237, 5-((4-(2-methoxyethoxy)phenyl)amino)-2-methylisoindolin-1-one]
1000 to 10000 | CN1Cc2cc(Nc3ccc(CN4CCCC4)cc3)ccc2C1=O [Compound 238, 2-methyl-5-((4-(pyrrolidin-1-ylmethyl)phenyl)amino)isoindolin-1-one]
0.1 to 100 | CC1CCCCN1c1ccc(Nc2ccc3c(c2)CN(C)C3=O)cc1 (stereo not drawn) [Compound 240, 2-methyl-5-((4-(2-methylpiperidin-1-yl)phenyl)amino)isoindolin-1-one]
0.1 to 100 | CC1CCCN(c2ccc(Nc3ccc4c(c3)CN(C)C4=O)cc2)C1 (stereo not drawn) [Compound 241, 2-methyl-5-((4-(3-methylpiperidin-1-yl)phenyl)amino)isoindolin-1-one]
0.1 to 100 | CN1Cc2cc(Nc3ccc(N4CCCC(C(F)(F)F)C4)cc3)ccc2C1=O (stereo not drawn) [Compound 242, 2-methyl-5-((4-(3-(trifluoromethyl)piperidin-1-yl)phenyl)amino) isoindolin-1-one]
0.1 to 100 | COc1cc(Nc2ccc3c(c2)CN(C)C3=O)ccc1N1CCC(C(F)(F)F)CC1 [Compound 243, 5-((3-methoxy-4-(4-(trifluoromethyl)piperidin-1-yl)phenyl)amino)-2-methylisoindolin-1-one]
0.1 to 100 | CN1Cc2cc(Nc3ccc(N4CC5(CCC5)C4)cc3)ccc2C1=O [Compound 244, 5-((4-(2-azaspiro[3.3]heptan-2-yl)phenyl)amino)-2-methylisoindolin-1-one]
0.1 to 100 | CN1Cc2cc(Nc3ccc(N4C[C@H]5CC[C@@H]4C5)cc3)ccc2C1=O [Compound 245, 5-((4-((1R,4S)-2-azabicyclo[2.2.1]heptan-2-yl)phenyl)amino)-2-methylisoindolin-1-one]
0.1 to 100 | CN1Cc2cc(Nc3ccc(N4CC5(CCCC5)C4)cc3)ccc2C1=O [Compound 246, 5-((4-(2-azaspiro[3.4]octan-2-yl)phenyl)amino)-2-methylisoindolin-1-one]
0.1 to 100 | CN1CCC(N2Cc3cc(Nc4ccc(N5CCC(C)(C)CC5)cc4)ccc3C2=O)CC1 [Compound 247, 5-((4-(4,4-dimethylpiperidin-1-yl)phenyl)amino)-2-(1-methylpiperidin-4-yl)isoindolin-1-one]
0.1 to 100 | Cn1cncc1CN1Cc2cc(Nc3ccc(N4CCC(C(F)(F)F)CC4)cc3)ccc2C1=O [Compound 248, 2-((1-methyl-1H-imidazol-5-yl)methyl)-5-((4-(4-(trifluoromethyl)piperidin-1-yl)phenyl)amino)isoindolin-1-one]
0.1 to 100 | CC1CCN(c2ccc(Nc3ccc4c(c3)CN(C3CCN(C)CC3)C4=O)cc2)CC1 [Compound 249, 5-((4-(4-methylpiperidin-1-yl)phenyl)amino)-2-(1-methylpiperidin-4-yl) isoindolin-1-one]
0.1 to 100 | CC1CCN(c2ccc(Nc3ccc4c(=O)n(C)n(C)c4c3)cc2)CC1 [Compound 250, 1,2-dimethyl-6-((4-(4-methylpiperidin-1-yl)phenyl)amino)-1,2-dihydro-3H-indazol-3-one]
0.1 to 100 | CC1CCN(c2ccc(Nc3ccc4c(=O)n(C)[nH]c4c3)cc2)CC1 [Compound 251, 2-methyl-6-((4-(4-methylpiperidin-1-yl)phenyl)amino)-1,2-dihydro-3H-ind azol-3-one]
0.1 to 100 | CCn1[nH]c2cc(Nc3ccc(N4CCC(C(F)(F)F)CC4)cc3)ccc2c1=O [Compound 252, 2-ethyl-6-((4-(4-(trifluoromethyl)piperidin-1-yl)phenyl)amino)-1,2-dihydro-3H-indazol-3-one]
0.1 to 100 | CC1CCN(c2ccc(Nc3cc(Cl)c4c(c3)CN(C(=O)C(F)(F)F)C4)cc2)CC1 [Compound 253, 1-(4-chloro-6-((4-(4-methylpiperidin-1-yl)phenyl)amino)isoindolin-2-yl)-2,2,2-trifluoroethan-1-one]
0.1 to 100 | CC1CCC(C)N1c1ccc(Nc2ccc3c(c2)n(C)c(=O)n3C)cc1 (stereo not drawn) [Compound 254, 5-((4-(2,5-dimethylpyrrolidin-1-yl)phenyl)amino)-1,3-dimethyl-1,3-dihydro-2H-benzo[d]imidazol-2-one]
0.1 to 100 | CC1CCN(c2ccc(Nc3cc4c(c([N+](=O)[O-])c3)CN(C(=O)C(F)(F)F)C4)cc2)CC1 [Compound 255, 2,2,2-trifluoro-1-(6-((4-(4-methylpiperidin-1-yl)phenyl)amino)-4-nitroisoindolin-2-yl)ethan-1-one]
0.1 to 100 | Cn1c(=O)oc2cc(Nc3ccc(N4CCC(C(F)(F)F)CC4)cc3)ccc21 [Compound 256]
